“Also recorded” adds a separate entry of the source. Read-outs that look alike come from different tables or passages of the source.
Assays:
[1] = tested on: primary human mammary epithelial cells; assay: Growth inhibition, mammary epithelial cells; type: cell-based; conditions: Epithelial cell, normal cells, read-out: IC50 Values, Breast Epithelial Cells
Procedure: (§1) Growth inhibitory effects of PCNA-I1 and PCNA-I2 were assessed in human cancer cell lines, mouse cancer cell lines, immortalized mouse cell lines, and human primary cell lines. Specifically, growth inhibitory effects of PCNA-I1 and PCNA-I2 were assessed using MTT staining in the following cells lines: 1) human cancer cell lines including LNCaP (androgen receptor […]), 22Rv1, DU-145, LAPC-4, and PC-3 (androgen receptor […]) prostate cancer cells; MCF-7 and T47D breast cancer cells; A375 and MDA-MB435 melanoma cells; 2) mouse cancer cell lines including TRAMP-C2RE3 prostate cancer cells, B16 and K1735 melanoma cells, UV2237 fibrosarcoma cells, and CT-26 colon cancer cells; 3) immortalized mouse lung cell lines and mouse endothelial cell lines; and 4) primary human cell lines including umbilical endothelial cells (HUVEC, PromoCell, Heidelberg, Germany), primary bone marrow mesenchymal stem cells (HuMSC, PromoCell), primary human mammary epithelial cells (HuBrEC, Lonza, Walkersville, Md.), primary human prostate epithelial cells (HuPrEC, Lonza), and primary mouse spleen lymphocytes (isolated in this laboratory), and primary mouse bone marrow stromal cells (isolated in this laboratory). […]
(§2) IC50 values were derived from growth inhibition curves. […] Inhibition of cell growth was calculated using the formula: growth inhibition (%)=(1−A570 of treated/A570 of control)×100. […]

[2] = tested on: primary human prostate epithelial cells; assay: Growth inhibition, prostate epithelial cells; type: cell-based; conditions: Epithelial cell, normal cells
Procedure: as §1, §2

LNCaP cells [3] = assay: MTT assay, PCNA-I1 and cisplatin alone or combined, LNCaP; type: cell-based, Human; conditions: Homo sapiens, LNCaP
Procedure: LNCaP or PC-3 cells were treated with a variety of concentrations of PCNA-I1 (0.1-10 μM) or cisplatin (0.1-10 μM) alone, or with a variety of concentrations of a combination of PCNA-I1 (0.1-10 μM) and cisplatin (0.1-10 μM) for four days. MTT assays were performed and IC50 values for PCNA-I1 and cisplatin were determined.

CT-26 colon cancer cells = assay: Growth inhibition by MTT staining, CT-26; type: cell-based; conditions: CT26; Mouse tumor cells; cell line not given; read-out: IC50 Values, cell line cell blank (first row below UV2237)
Procedure: as §1, §2

[4] = tested on: Prostate Endothelial cells (Mu-Pr-Endo); assay: Growth inhibition, mouse prostate endothelial cells; type: cell-based; conditions: Endothelial cell
Procedure: as §1, §2

Tumor Cells = assay: Growth inhibition, mean over tumor cell lines; type: cell-based; conditions: mean over all tumor cell lines; read-out: IC50 Values, Tumor Cells, Mean ± SD
Procedure: as §1, §2

[5] = tested on: CT26R100 murine colon cancer cell line; assay: Growth inhibition by MTT staining, CT26R100; type: cell-based, Mouse
[6] = tested on: HUVEC (primary human umbilical endothelial cells); assay: Growth inhibition, HUVEC; type: cell-based; conditions: for IC50: HUVEC
Procedure: Growth inhibitory effects of PCNA-I1 and PCNA-I2 were assessed in human cancer cell lines, mouse cancer cell lines, immortalized mouse cell lines, and human primary cell lines. Specifically, growth inhibitory effects of PCNA-I1 and PCNA-I2 were assessed using MTT staining in the following cells lines: 1) human cancer cell lines including LNCaP (androgen receptor […]), 22Rv1, DU-145, LAPC-4, and PC-3 (androgen receptor […]) prostate cancer cells; MCF-7 and T47D breast cancer cells; A375 and MDA-MB435 melanoma cells; 2) mouse cancer cell lines including TRAMP-C2RE3 prostate cancer cells, B16 and K1735 melanoma cells, UV2237 fibrosarcoma cells, and CT-26 colon cancer cells; 3) immortalized mouse lung cell lines and mouse endothelial cell lines; and 4) primary human cell lines including umbilical endothelial cells (HUVEC, PromoCell, Heidelberg, Germany), primary bone marrow mesenchymal stem cells (HuMSC, PromoCell), primary human mammary epithelial cells (HuBrEC, Lonza, Walkersville, Md.), primary human prostate epithelial cells (HuPrEC, Lonza), and primary mouse spleen lymphocytes (isolated in this laboratory), and primary mouse bone marrow stromal cells (isolated in this laboratory). PCNA-I1 and PCNA-I2 were either provided by the University of Cincinnati Drug Discovery Center (UC-DDC, Cincinnati, Ohio) or were purchased from Chembridge Co (San Diego, Calif.), ChemDiv (San Diego, Calif.), and/or Sigma-Aldrich (St Louis, Mo.).
Growth inhibitory effects of the compounds were assessed by MTT staining as described previously by Dong et al. in In Vitro Model for Intrinsic Drug Resistance: Effects of Protein Kinase C Activators on the Chemosensitivity of Cultured Human Colon Cancer Cells; Mol. Pharmacol. 1991; 39: 563-9. […]
IC50 values were derived from growth inhibition curves. […] Inhibition of cell growth was calculated using the formula: growth inhibition (%)=(1−A570 of treated/A570 of control)×100. […] The fluorescence intensity was measured at 530/580 (excitation/emission) in the FLUOstar Omega microplate reader (BMG LABTECH, Cary, N.C.). […]

A375 melanoma cells = assay: Growth inhibition by MTT staining, A375; type: cell-based; conditions: A-375, 96 h, Human, treated four days
Procedure: as §1, §2

LNCaP cells [7] = assay: FACS analysis, LNCaP; type: cell-based, Human; conditions: particularly at 10 μM; FIG. 16
Procedure: Fluorescence-activated cell sorting (FACS) analysis was performed on both PC-3 cells and LNCaP cells using PCNA-I1. Specifically, cells were treated with 1 or 10 μM PCNA-I1 and sampled for the flow cytometry analysis at 24 H, 48 H, and 72 H. Expression of DNA damage and apoptosis-related proteins in PC-3 cells and LNCaP cells was also determined. Cisplatin, a well-known drug that induces DNA damage and apoptosis, was included in the experiment. LNCaP cells were treated for 6 H, 12 H, or 18 H with 10 μM PCNA-I1, 10 μM cisplatin, or both.

`Cc1ccsc1C(=O)N/N=C/c1ccc2ccccc2c1O` [PCNA-I1] was tested, and the IC50 [1] was 1670 nM, the IC50 [2] was 2000 nM and the IC50 (LNCaP cells [3]; 96 h, MTT, four days, single agent, read-out: IC50 doses for cell growth inhibition, LNCaP, agent alone) was 230 nM. For the same compound, the IC50 (LNCaP cells [3]; combined with 0.3 μM cisplatin, read-out: PCNA-I1 concentration giving 50% inhibition in combination, LNCaP) was 67 nM, the IC50 (CT-26 colon cancer cells) was 130 nM and the IC50 ([4]; Mouse, Blood Vessel, normal cells, read-out: IC50 Values, Prostate Endothelial) was 680 nM. It also gave an IC50 ([4]; Mus musculus, FIG. 2(C), read-out: IC50, Mu-Pr-Endo) of 677 nM, an IC50 (Tumor Cells) of 190 ± 90 nM and an IC50 ([5]; Mouse tumor cells, cell line not given, read-out: IC50 Values, cell line cell blank (second row below UV2237)) of 80 nM. For the same compound, the “Sensitivity of multidrug resistant CT26R100 and CT26-R500 cells relative to parental CT26 cells” value ([5]; cells overexpress P-glycoprotein, MDR phenotype) was “even more sensitive to PCNA-I1 than the parental CT26 cells; also recorded: as susceptible as the parental CT-26 cells”, the “Growth stimulation, HUVEC” value ([6]; FIG. 2(C)) was “Moderate growth stimulation” and the IC50 ([6]; Human, Blood Vessel, normal cells, mean of three experiments, read-out: IC50 Values, HUVEC) was 1540 nM. The IC50 ([6]; Homo sapiens, FIG. 2(C), read-out: IC50, HUVEC) was 1540 nM, the IC50 (A375 melanoma cells) was 290 nM and the “Apoptosis, LNCaP (sub-G1 population)” value (LNCaP cells [7]) was “induced significant apoptosis”.
